Assay results as given in patent publication US12435061B2 (priority 2020, dated 2025).
In brackets after ≈: the same amount, converted by molar mass. Several values for one entry are separate records, joined by “and”; a condition that tells them apart may be missing. Identical values can stand only once. Like-named read-outs stand apart in the source and are kept apart here.

Legend:
[1] = Aqueous solubility assay in Normal Ringer Solution; settings: for solubility at 40 min: saline or isotonic, kinetic from dmso stock
Procedure: Following vortex and incubation for a sufficient time (e.g. 40 minutes at room temperature), solutions were filtered, quenched with acetonitrile, and analyzed by Liquid Chromotography. Solubility Limits were determined by comparison to a standard curve.

hTRPV3 [2] = target: T1, hTRPV3 (Homo sapiens (Human), UniProt Q8NET8); test: Whole-cell patch clamp, hTRPV3 Phase 1 / Phase 2 currents; format: cell-based
Outline: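 Currents are activated by 20 μM 2-APB or by perfusate at 28 °C or warmer, in Ringer's solution, and quantified at ±80 mV.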
Target sequence in this assay (Q8NET8 whole entry): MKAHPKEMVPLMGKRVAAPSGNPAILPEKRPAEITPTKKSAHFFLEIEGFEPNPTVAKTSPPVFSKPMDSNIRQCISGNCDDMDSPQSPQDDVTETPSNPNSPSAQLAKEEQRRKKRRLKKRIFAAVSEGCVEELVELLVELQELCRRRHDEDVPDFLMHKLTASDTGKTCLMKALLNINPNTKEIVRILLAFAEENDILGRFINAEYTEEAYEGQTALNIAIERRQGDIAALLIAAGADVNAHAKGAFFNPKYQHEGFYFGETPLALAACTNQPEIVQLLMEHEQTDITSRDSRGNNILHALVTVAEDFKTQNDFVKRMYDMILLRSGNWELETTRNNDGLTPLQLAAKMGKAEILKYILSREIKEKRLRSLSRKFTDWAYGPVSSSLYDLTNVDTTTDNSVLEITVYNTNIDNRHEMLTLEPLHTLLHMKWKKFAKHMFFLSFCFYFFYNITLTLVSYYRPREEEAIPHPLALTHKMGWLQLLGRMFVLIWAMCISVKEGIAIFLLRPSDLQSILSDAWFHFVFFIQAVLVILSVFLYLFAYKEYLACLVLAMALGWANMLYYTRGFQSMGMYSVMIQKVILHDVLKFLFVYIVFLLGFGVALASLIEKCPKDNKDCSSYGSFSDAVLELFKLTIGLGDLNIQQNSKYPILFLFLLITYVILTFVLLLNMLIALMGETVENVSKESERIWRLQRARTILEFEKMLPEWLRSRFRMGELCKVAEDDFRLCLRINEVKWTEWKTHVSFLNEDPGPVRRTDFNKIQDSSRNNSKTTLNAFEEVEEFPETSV

[3] = Metabolic Stability assay, rat liver microsomes; format: in vitro ADME
Outline: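 Reactions in human or rat liver microsomes at 37 °C were started with an NADPH-regenerating system, using 1 μM compound initially. Samples were taken at 0, 7, 15, 30 and 60 min, quenched in ice-cold acetonitrile/MeOH/H2O, and quantified by HPLC/MS/MS.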

rat (r) TRPV3 = rat (r) TRPV3 (Rattus norvegicus, UniProt E9PU00); test: Whole-cell patch clamp, rTRPV3 Phase 1 / Phase 2 currents; format: cell-based
Text: Whole-cell patch clamp experiments permit the detection of currents through the TRPV3 channel in the cell line described above. A glass electrode is brought into contact with a single cell and the membrane is then ruptured, permitting control of the voltage of the cell membrane and measurement of currents flowing across the membrane using the amplifier attached to the electrode. A perfusion system permits control of the extracellular solution, including the addition of blockers and activators of the current. The current can be activated by heating this solution to 28° C. or warmer or by addition of 20 μM 2-APB to the solution.
TRPV3 cells were induced 20-48 hours, removed from growth plates, and replated at low density (to attain good single-cell physical separation) on glass coverslips for measurement. In some cases, cells were grown in low density overnight on glass coverslips. Patch clamp recordings were made in the whole-cell mode with a holding potential of −40 mV. Every 5 seconds, a voltage ramp was applied from −120 to +100 mV, 400 ms in duration. Currents elicited were quantified at −80 mV and +80 mV. The internal solution consisted of 140 mM cesium aspartate, 10 mM EGTA, 2.27 mM MgCl2, 1.91 mM CaCl2) and 10 mM HEPES, pH to 7.2 with KOH; with 50 nM calculated free […]. External solution was Ringer's solution described above. Upon addition of 2-APB or upon heating of the extraceullar solution as described above, TRPV3 current was induced only in TRPV3-expressing cells and not in parental HEK293 TREx cells. […] Removal of the stimulus caused most of the current to go away, and inhibitor addition could still inhibit this current.
In Tables 3 and 4, Phase 1 refers to Phase 1 current for human (h) TRPV3 or rat (r) TRPV3, and Phase 2 refers to Phase 2 current for human (h) TRPV3 or rat (r) TRPV3. The hTRPV3 and rTRPV3 assays were performed as described herein. hERG refers to the inhibition the human ERG (hERG) channel. NaV1.5, refers to the pore forming aL-subunit of the voltage-dependent cardiac Na(+) channel and is an integral membrane protein involved in the initiation and conduction of action potentials. hTRPV3 HAMA IC50 refers to the IC50 of TRPV3 cells stably expressed in TRex-293 cells. Solubility Ringer refers to the compounds' solubility in Ringer's solution. LM T1/2 refers to liver microsome half-lives in either rat or human liver microsomes. FLIPR IC50 refers to the IC50 of the test compounds against recombinant hTRPV3 cells.

hTRPV3 [4] = target: T1, hTRPV3; test: hTRPV3 HAMA IC50 assay (Hamamatsu FDSS6000 calcium flux, TRex-293 cells); settings: 5 min
Target sequence in this assay (Q8NET8 whole entry): as above
Procedure: IC50s were calculated using CBIS from ChemInnovation (San Diego).

human hERG channels = human hERG channels (Homo sapiens (Human), UniProt Q12809); test: hERG assay (patch clamp, CHO cells); format: cell-based; settings: (PL); read-out: hERG
Procedure: hERG assay: Briefly, cells from a stable CHO cell line expressing human hERG channels were plated onto glass coverslips and used in patch clamp assays on the same day. After seal formation and break-in to whole-cell configuration, voltage steps were applied as follows: from the holding potential of −90 mV, a 2 second long step to +40 mV was applied, followed by a 1.5 second step to −50 mV. These steps were applied once every 5 seconds. The hERG current was measured at the peak of the outward tail current at −50 mV. The pipette solution was potassium aspartate based and the external solution was normal Ringer's.
All currents were recorded in whole-cell configuration using an Axopatch 200B controlled by pClamp 10 software (Molecular Devices). In each cell, when the current stabilized, the compound was perfused locally onto the cell. Two to three concentrations of the test compound were applied to each cell. At the end of compound testing, 10 μM verapamil was applied to completely block hERG currents and assess leak current.
Data were analyzed by computing the degree of current block after compound addition compared with the unblocked current amplitude. The unblocked current was predicted from the interpolation between the current amplitude prior to compound addition and after compound washout. The resulting percent block at each concentration was used to make a concentration-response plot and fitted to the Hill equation: percent block=minimum block+(maximum block-minimum block)/(1+10^(Hill slope*(log IC50−concentration))).

[5] = Metabolic Stability assay, human liver microsomes; format: in vitro ADME; settings: read-out: LM T1/2 (min) human
Procedure: Metabolic Stability assay: The metabolic stability was determined by adding compound dissolved in DMSO to human or rat, liver microsomes. Briefly, assays were run with a starting concentration of 1 μM test article. The reaction was started by addition of NADPH regeneration components at 37° C. at which time an aliquot was immediately quenched in ice-cold acetonitrile/MeOH/H2O solution. Reaction mixture was incubated at 37° C. on a shaker, and additional aliquots were taken at 7, 15, 30 and 60 minutes. Following quench and centrifugation, samples were analyzed on HPLC/MS/MS.

hTRPV3 [6] = target: T1, hTRPV3; test: Semi-auto patch clamp recording in nHEK cells (WT or TRPV3-mu transfected); format: cell-based
Procedure: Compounds were tested at room temperature using the whole-cell patch clamp technique with a HEKA EPC 10 usb patch-clamp amplifier (HEKA Elektronik, Germany). Output signals from the amplifier were digitized and recorded with PatchMaster (v2x90.5 HEKA Elektronik, Germany). For quality control, the minimum seal resistance was set at 100 MΩ, and the outward current was stabilized with at least 1 nA of rectifying current at +80 mV while the inward current was stabilized with at least 300 pA of rectifying current at −80 mV.
NPC-1 Chips (Nanion, Germany) were used to trap a single cell. For both WT or transfected cells, chips of the categories 2-3 MOhm and 3-5 MOhm were used. Chips are disposable and each recording required a new chip. 5 μl of internal solution was applied in the inner pore of the chip, then it was screwed on top of the inner electrode. The upper unit of the patch lamp device was assembled over the chip, and 15 μl external buffer were added between the chip pore and the external electrode.
Basal nHEK cells at Passage 2 or 3 and at the density of 70-90% confluency were used for patch clamp or transfection. For patch-clamp, cells were suspended in TrypLE enzyme for 5 min in 37° C., and then harvested using KBM-Gold media. Cells were then centrifuged for 5 min at 110 g RT. Supernatant was then removed, and cells were re-suspended in the KBM-Gold media and maintained at RT until patch-clamp. After patch clamp system was initialized, and once cell was capture on the chip, media was washed together with free cells, and replaced by external buffer. For TRPV3-mu transfected cells, cells were maintained in KBM-Gold media containing 3 uM of the tested antagonist.
nHEK cells were transfected according to SOP KP-Lab-001.For patch clamp, cells were seeded in 12 well plate and harvested 24 hours after transfection according to the SOP section 2.8.2 “Cell preparation for patch clamp”.
For WT nHEK cells, the “intermediate protocol” in the semi-automatic Port-a-Patch device software was selected based on the parameters: initial sealing, measured by resistance, and its ability to maintain sealing along with assay.
The procedure was started with the “Startup procedure” protocol that validates chip contact and adjusts offset, then after the system was ready, 5 μl of cells suspended in extracellular buffer was added and the intermediate protocol was automatically launched.
When a cell was trapped by vacuum, the value “v-membrane” was raised by 100%, then 15 μl of sealing solution was added. The procedure continued automatically through all its steps until the final step “maintain the whole-cell”. At this step, the sealing solution was washed using three 20 μl washes with an external buffer, and the values C-fast and C-slow were adjusted twice using the “Auto E” buttons.
The sensitivity of reading was adjusted by changing the gain from 2.0 to 0.5.
To initiate recording, the “Ramp” protocol was initiated, and currents were recorded for several minutes until the signal remained stable for both inward and outward currents.
For TRPV3-mu transfected nHEK cells, a similar procedure was used, but with “Fragile protocol”, and the addition of the antagonist at the step of sealing.
Nanion's system automatically maintained cells in the holding potential of −40 mV. Then the voltage was ramped from […] for 160 ms. Finally, the voltage was stepped back to the holding potential (−40 mV). This voltage command protocol was repeated in cycles of 400 ms (FIG. 1).
The solution was then gently mixed and current recording resumed.
Within each cellular recording, the percent of control values were calculated for each test compound concentration-current response based on peak current in the presence of the agonist and full response.
Target sequence in this assay (Q8NET8 whole entry, looked up): as the sequence (Q8NET8 whole entry) above

[7] = Phase 1 current, inward, whole-cell patch clamp, read-out: hTRPV3 Patch P1 Inwd
[8] = Phase 1 current, read-out: hTRPV3 (nM) (Phase 1)
[9] = Phase 2 current, read-out: hTRPV3 (nM) (Phase 2)
[10] = Phase 1 current, read-out: rTRPV3 (nM) (Phase 1)
[11] = Phase 2 current, read-out: rTRPV3 (nM) (Phase 2)
[12] = Phase 1 current, human TRPV3, read-out: hTRPV3 (nM) Phase 1

rat (r) TRPV3, sequence (E9PU00 1-791): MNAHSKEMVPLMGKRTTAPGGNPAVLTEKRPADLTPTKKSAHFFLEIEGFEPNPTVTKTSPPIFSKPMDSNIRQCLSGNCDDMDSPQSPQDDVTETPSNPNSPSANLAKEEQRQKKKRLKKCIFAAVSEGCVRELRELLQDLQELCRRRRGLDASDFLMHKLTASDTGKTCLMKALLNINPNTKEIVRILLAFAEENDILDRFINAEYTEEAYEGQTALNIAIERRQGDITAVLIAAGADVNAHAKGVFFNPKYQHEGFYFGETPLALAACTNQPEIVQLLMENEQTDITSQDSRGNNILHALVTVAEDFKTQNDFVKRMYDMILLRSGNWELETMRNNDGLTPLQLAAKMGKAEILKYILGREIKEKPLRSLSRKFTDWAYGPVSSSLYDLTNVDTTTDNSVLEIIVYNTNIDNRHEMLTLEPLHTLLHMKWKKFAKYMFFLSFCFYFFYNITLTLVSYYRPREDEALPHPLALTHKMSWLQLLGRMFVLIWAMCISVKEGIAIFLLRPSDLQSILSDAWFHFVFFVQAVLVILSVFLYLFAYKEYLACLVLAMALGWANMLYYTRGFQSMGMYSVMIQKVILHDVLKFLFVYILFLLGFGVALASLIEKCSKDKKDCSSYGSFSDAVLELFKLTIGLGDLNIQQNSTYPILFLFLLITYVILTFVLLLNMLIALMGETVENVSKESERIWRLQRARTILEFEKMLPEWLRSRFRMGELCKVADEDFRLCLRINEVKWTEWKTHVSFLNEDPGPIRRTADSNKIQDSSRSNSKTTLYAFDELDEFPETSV
human hERG channels, sequence (Q12809 whole entry): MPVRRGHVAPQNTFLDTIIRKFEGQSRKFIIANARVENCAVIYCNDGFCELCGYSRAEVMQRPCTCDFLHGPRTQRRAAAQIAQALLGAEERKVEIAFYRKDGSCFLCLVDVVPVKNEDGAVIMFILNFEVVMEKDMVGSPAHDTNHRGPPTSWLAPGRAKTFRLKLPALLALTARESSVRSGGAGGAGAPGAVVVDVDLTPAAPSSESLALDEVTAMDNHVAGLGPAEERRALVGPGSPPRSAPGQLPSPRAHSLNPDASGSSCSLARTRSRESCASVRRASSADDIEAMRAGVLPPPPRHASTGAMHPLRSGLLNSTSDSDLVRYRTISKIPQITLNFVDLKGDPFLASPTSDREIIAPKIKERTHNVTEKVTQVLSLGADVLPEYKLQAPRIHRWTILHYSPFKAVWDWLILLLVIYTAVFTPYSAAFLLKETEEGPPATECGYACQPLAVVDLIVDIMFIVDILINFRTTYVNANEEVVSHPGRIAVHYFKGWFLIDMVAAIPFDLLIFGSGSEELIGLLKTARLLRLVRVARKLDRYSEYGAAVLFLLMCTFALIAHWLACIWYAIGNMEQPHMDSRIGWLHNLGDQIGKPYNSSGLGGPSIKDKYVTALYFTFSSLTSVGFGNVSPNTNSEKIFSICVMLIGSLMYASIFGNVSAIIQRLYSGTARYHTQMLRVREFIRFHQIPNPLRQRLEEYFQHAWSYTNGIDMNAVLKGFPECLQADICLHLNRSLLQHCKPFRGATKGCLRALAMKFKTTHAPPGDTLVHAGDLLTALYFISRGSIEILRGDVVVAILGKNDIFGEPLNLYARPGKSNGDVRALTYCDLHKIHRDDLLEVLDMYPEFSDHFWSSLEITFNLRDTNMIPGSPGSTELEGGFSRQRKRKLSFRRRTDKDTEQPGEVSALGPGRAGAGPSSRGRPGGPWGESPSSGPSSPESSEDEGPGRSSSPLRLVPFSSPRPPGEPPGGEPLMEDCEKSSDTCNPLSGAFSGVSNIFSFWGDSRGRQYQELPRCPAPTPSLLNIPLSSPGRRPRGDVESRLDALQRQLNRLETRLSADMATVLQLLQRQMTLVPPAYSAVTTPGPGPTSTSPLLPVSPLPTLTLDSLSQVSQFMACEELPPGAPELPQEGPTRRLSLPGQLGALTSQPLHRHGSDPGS

## NC(=O)c1cc(-c2ccc(F)cc2)ccc1N1CC[C@H](Oc2ccc(C(F)(F)F)cn2)C1 [Compound 1-65, (S)-4′-fluoro-4-(3-(5-(trifluoromethyl)pyridin-2-yloxy)pyrrolidin-1-yl)biphenyl-3-carboxamide]
[1]; Normal Ringer Solution, room temperature
  Solubility Ringer (nM): BLQ
hTRPV3 [2]; [7]
  IC50: 100 to 1000 nM
hTRPV3 [2]; [8]
  IC50: 475 nM
hTRPV3 [2]; Phase 2 current, inward, whole-cell patch clamp, read-out: hTRPV3 Patch P2 Inwd
  IC50: 100 to 1000 nM
hTRPV3 [2]; [9]
  IC50: 417 nM
[3]; read-out: LM T1/2 (min) (rat)
  half-life at 1 μM: 77.3 min
Rat (r) TRPV3; [10]
  IC50: 1140 nM
Rat (r) TRPV3; [11]
  IC50: 3250 nM
hTRPV3 [4]
  hTRPV3 HAMA IC50 (nM) (5 min): no fit (5 min)

## OCc1cc(C(O)c2ccccc2Cl)ccc1N1CC[C@H](Oc2ncccc2Cl)C1 (stereo partly drawn) [Compound 1-262, (2-chlorophenyl)(4-((S)-3-(3-chloropyridin-2-yloxy)pyrrolidin-1-yl)-3-(hydroxymethyl)phenyl)methanol]
[1]
  solubility at 40 min: ~4.7 µM (≈ 2.09 µg/mL)
hTRPV3 [2]; [7]
  IC50: 10 to 100 nM
hTRPV3 [2]; [8]
  IC50: 23.7 nM
[3]; read-out: LM T1/2 (min) (rat)
  half-life at 1 μM: 14.6 min
Rat (r) TRPV3; [10]
  IC50: ~20 nM
Rat (r) TRPV3; [11]
  IC50: 21.3 nM

## OCc1cc([C@@H](O)c2ccccc2Cl)ccc1N1CC[C@H](Oc2ncccc2F)C1 [Compound 1-321, (2-chlorophenyl)(4-((S)-3-(3-fluoropyridin-2-yloxy)pyrrolidin-1-yl)-3-(hydroxymethyl)phenyl)methanol]
[1]; Normal Ringer Solution
  solubility at 40 min: > 9.8 µM
hTRPV3 [2]; [7]
  IC50: 10 to 100 nM
hTRPV3 [2]; [8]
  IC50: 12.2 nM
hTRPV3 [2]; Phase 2 current
  hTRPV3 (nM) (Phase 2): Incomplete Block
hTRPV3 [2]; [9]
  IC50: ~30 nM and ~44 nM
[3]; read-out: LM T1/2 (min) (rat)
  half-life at 1 μM: 16.9 min
Rat (r) TRPV3; [10]
  IC50: 5.37 nM
Rat (r) TRPV3; rTRPV3 (nM) (Phase 2), Phase 2 current
  IC50: ~15.7 nM
Human hERG channels
  IC50: ~3730 nM

## CCc1ccccc1-c1ccc(C2CCN(C(=O)c3cccc(Cl)n3)C2)c(CO)c1 (stereo not drawn) [Compound 2-53, (6-chloropyridin-2-yl)(3-(2′-ethyl-3-(hydroxymethyl)biphenyl-4-yl)pyrrolidin-1-yl) methanone]
[1]; Normal Ringer Solution
  solubility at 40 min: ~7.7 µM (≈ 3.24 µg/mL)
hTRPV3 [2]; [12]
  IC50: 8.39 nM
hTRPV3 [2]; [7]
  IC50: < 10 nM
[3]; read-out: LM T1/2 (min) rat
  half-life at 1 μM: 12.3 min
[5]
  half-life at 1 μM: 24.9 min

## CCc1ccccc1-c1ccc(C2CCN(C(=O)c3ncccc3Cl)C2)c(CO)c1 (stereo not drawn) [Compound 2-52, (3-chloropyridin-2-yl)(3-(2′-ethyl-3-(hydroxymethyl)biphenyl-4-yl)pyrrolidin-1-yl) methanone]
[1]; Normal Ringer Solution
  solubility at 40 min: > 17.8 µM
hTRPV3 [2]; [12]
  IC50: 67.3 nM
hTRPV3 [2]; [7]
  IC50: 10 to 100 nM
[3]; read-out: LM T1/2 (min) rat
  half-life at 1 μM: 9.2 min
[5]
  half-life at 1 μM: 14.4 min

## NC(=O)c1cc(-c2ccccc2)ccc1N1CC[C@@H](Oc2ccc(C(F)(F)F)cn2)C1 [Compound 1-33, (R)-4-(3-(5-(trifluoromethyl)pyridin-2-yloxy)pyrrolidin-1-yl)biphenyl-3-carboxamide]
hTRPV3 [2]; [7]
  IC50: 100 to 1000 nM
hTRPV3 [2]; [8]
  IC50: 139 nM
Rat (r) TRPV3; [10]
  IC50: 283 nM
Rat (r) TRPV3; [11]
  IC50: 776 nM
hTRPV3 [4]
  hTRPV3 HAMA IC50 (nM) (5 min): no fit (5 min)

## Cc1cncc(C(=O)N2CC[C@H](c3ccc(-c4ccccc4C4CC4)cc3CO)C2)n1 (stereo in doubt) [KM-032-E1, [3-(2′-Cyclopropyl-3-hydroxymethyl-biphenyl-4-yl)-pyrrolidin-1-yl]-(6-methyl-pyrazin-2-yl)-methanone]
hTRPV3 [6]
  IC50: 10 to 100 nM

## CNc1cncc(C(=O)N2CCC(c3ccc(-c4ccccc4C(C)C)cc3CO)C2)n1 (stereo not drawn) [KM-069, [3-(3-Hydroxymethyl-2′-isopropyl-biphenyl-4-yl)-pyrrolidin-1-yl]-(6-methylamino-pyrazin-2-yl)-methanone]
hTRPV3 [6]
  IC50: 10 to 100 nM

## COc1cncc(C(=O)N2CCC(c3ccc(-c4cccc5c4CCC5)cc3CO)C2)n1 (stereo not drawn) [KM-071, [3-(2-Hydroxymethyl-4-indan-4-yl-phenyl)-pyrrolidin-1-yl]-(6-methoxy-pyrazin-2-yl)-methanone]
hTRPV3 [6]
  IC50: 10 to 100 nM
